{"source": "ChEMBL document CHEMBL4376815", "about": "“The Development Process for Discovery and Clinical Advancement of Modern Antimalarials” (J Med Chem, 2019)", "key": {"[1]": {"target": "T1, Voltage-gated inwardly rectifying potassium channel KCNH2 (Homo sapiens, UniProt Q12809)", "T1 sequence (Q12809 whole entry)": "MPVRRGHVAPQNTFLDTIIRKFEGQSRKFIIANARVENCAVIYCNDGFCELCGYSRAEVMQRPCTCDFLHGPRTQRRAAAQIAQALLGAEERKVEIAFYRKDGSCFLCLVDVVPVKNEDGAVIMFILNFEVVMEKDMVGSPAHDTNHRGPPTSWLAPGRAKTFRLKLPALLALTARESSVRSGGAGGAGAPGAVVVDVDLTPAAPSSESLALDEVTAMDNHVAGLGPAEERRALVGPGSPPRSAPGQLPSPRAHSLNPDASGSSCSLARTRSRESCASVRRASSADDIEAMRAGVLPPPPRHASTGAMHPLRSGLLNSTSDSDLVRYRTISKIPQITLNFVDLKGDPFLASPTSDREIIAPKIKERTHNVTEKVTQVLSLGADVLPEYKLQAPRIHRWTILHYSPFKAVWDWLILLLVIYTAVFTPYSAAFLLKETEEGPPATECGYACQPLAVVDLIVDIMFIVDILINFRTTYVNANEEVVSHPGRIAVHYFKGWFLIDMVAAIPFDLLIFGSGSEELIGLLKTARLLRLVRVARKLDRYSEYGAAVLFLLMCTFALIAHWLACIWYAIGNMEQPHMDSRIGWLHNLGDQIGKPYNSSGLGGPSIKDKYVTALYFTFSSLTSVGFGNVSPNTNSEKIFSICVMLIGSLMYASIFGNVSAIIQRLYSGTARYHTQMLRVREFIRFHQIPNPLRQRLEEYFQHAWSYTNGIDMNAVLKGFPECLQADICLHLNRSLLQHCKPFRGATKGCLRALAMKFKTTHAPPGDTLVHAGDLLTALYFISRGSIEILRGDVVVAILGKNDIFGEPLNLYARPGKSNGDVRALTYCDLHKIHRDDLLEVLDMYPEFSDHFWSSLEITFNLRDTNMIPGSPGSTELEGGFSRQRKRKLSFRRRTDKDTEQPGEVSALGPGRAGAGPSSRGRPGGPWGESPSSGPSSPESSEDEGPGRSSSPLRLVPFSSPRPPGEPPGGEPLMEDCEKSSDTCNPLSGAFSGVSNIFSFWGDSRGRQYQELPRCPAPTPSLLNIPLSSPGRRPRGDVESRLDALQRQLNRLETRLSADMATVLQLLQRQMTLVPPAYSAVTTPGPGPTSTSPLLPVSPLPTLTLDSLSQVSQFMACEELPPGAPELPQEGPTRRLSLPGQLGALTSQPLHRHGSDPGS", "assay": "Inhibition of human ERG by binding assay"}, "[2]": {"system": "Plasmodium falciparum", "assay": "Antimalarial activity against Plasmodium falciparum infected in human assessed as reduction in parasite growth at 30 mg/kg, po administered daily for 3 consecutive day and measured on day 5 relative to control", "type": "functional", "set-up": "scale not given: the % may be the effect or the level left"}, "[3]": {"system": "Plasmodium falciparum", "assay": "Antimalarial activity against Plasmodium falciparum TM91C235 infected in human erythrocytes assessed as reduction in [3H]-hypoxanthine incorporation incubated for 48 hrs followed by addition of [3H]-hypoxanthine and measured after 24 hrs by liquid scintillation counting method", "type": "functional, organism-based"}, "[4]": {"assay": "AUC (infinity) in rat at 23.7 mg/kg, po and measured up to 24 hrs by LC/MS analysis", "type": "ADME, organism-based", "set-up": "dose 23.7 mg/kg, route oral, time infinity", "conditions": "in vivo"}, "[5]": {"system": "Plasmodium falciparum", "assay": "Antimalarial activity against Plasmodium falciparum infected in po dosed human assessed as reduction in parasite growth", "type": "functional"}, "[6]": {"system": "Plasmodium falciparum", "assay": "Antimalarial activity against Plasmodium falciparum 7G8 infected in human erythrocytes assessed as reduction in [3H]-hypoxanthine incorporation incubated for 48 hrs followed by addition of [3H]-hypoxanthine and measured after 24 hrs by liquid scintillation counting method", "type": "functional, organism-based"}, "[7]": {"assay": "Plasma protein binding in human", "type": "ADME, cell-free", "conditions": "read-out: PPB"}, "[8]": {"system": "Plasmodium falciparum", "assay": "Antimalarial activity against Plasmodium falciparum NF54 infected in human erythrocytes assessed as reduction in [3H]-hypoxanthine incorporation incubated for 48 hrs followed by addition of [3H]-hypoxanthine and measured after 24 hrs by liquid scintillation counting method", "type": "functional, organism-based"}, "[9]": {"assay": "Tmax in human at […], po and measured up to 96 to 144 hrs by LC-MS/MS analysis", "type": "ADME, organism-based", "conditions": "in vivo"}, "[10]": {"system": "Plasmodium falciparum", "assay": "Antimalarial activity against Plasmodium falciparum TM90C2A infected in human erythrocytes assessed as reduction in [3H]-hypoxanthine incorporation incubated for 48 hrs followed by addition of [3H]-hypoxanthine and measured after 24 hrs by liquid scintillation counting method", "type": "functional, organism-based"}, "[11]": {"system": "Plasmodium vivax", "assay": "Antimalarial activity against Plasmodium vivax infected in human assessed as reduction in parasite growth at 30 mg/kg, po administered daily for 3 consecutive day and measured on day 5 relative to control", "type": "functional", "set-up": "scale not given: the % may be the effect or the level left"}, "[12]": {"assay": "AUC (0 to 24 hrs) in human at 150 mg, po for 3 days and measured on day 1 by LC-MS/MS analysis", "conditions": "in vivo"}, "[13]": {"system": "Plasmodium vivax", "assay": "Antimalarial activity against Plasmodium vivax infected in human assessed as median parasite clearance time at 30 mg/kg, po administered daily for 3 consecutive day and measured on day 5", "type": "functional"}, "[14]": {"assay": "Tmax in Wistar Hannover rat at 10 mg/kg, po by LC-MS/MS analysis", "type": "ADME, organism-based", "conditions": "in vivo"}, "[15]": {"system": "Plasmodium falciparum", "assay": "Antimalarial activity against Plasmodium falciparum 3D7 infected in human erythrocytes assessed as reduction in [3H]-hypoxanthine incorporation incubated for 48 hrs followed by addition of [3H]-hypoxanthine and measured after 24 hrs by liquid scintillation counting method", "type": "functional, organism-based"}, "[16]": {"target": "T1, Voltage-gated inwardly rectifying potassium channel KCNH2", "assay": "Inhibition of human ERG by patch clamp method"}, "[17]": {"system": "Plasmodium berghei", "assay": "Antimalarial activity against Plasmodium berghei infected in NMRI mouse assessed as reduction in parasite growth at 10 mg/kg, po administered daily for 3 consecutive days by flow cytometric analysis relative to control", "type": "functional", "set-up": "scale not given: the % may be the effect or the level left"}, "[18]": {"assay": "Half life in Wistar Hannover rat at 5 mg/kg, iv by LC-MS/MS analysis", "conditions": "in vivo"}, "[19]": {"assay": "Volume of distribution in Beagle dog at 1 mg/kg, iv by LC-MS/MS analysis", "type": "ADME, organism-based, Canis lupus familiaris", "conditions": "in vivo"}, "[20]": {"assay": "Cytotoxicity against human HepG2 cells assessed as reduction in cell viability after 4 days by XTT assay", "type": "cell-based"}, "[21]": {"assay": "Metabolic stability in human assessed as paren compound remaining at […], po by LC-MS/MS analysis", "type": "ADME, organism-based", "conditions": "in vivo"}, "[22]": {"assay": "Clearance in Wistar Hannover rat at 5 mg/kg, iv by LC-MS/MS analysis", "type": "ADME, organism-based", "conditions": "in vivo"}, "[23]": {"system": "Plasmodium falciparum", "assay": "Antimalarial activity against Plasmodium falciparum W2 infected in human erythrocytes assessed as reduction in [3H]-hypoxanthine incorporation incubated for 48 hrs followed by addition of [3H]-hypoxanthine and measured after 24 hrs by liquid scintillation counting method", "type": "functional, organism-based"}, "[24]": {"system": "Plasmodium berghei", "assay": "Antimalarial activity against Plasmodium berghei infected in NMRI mouse assessed as mean survival days at 100 mg/kg, po administered once and measured up to 30 days", "type": "functional"}, "[25]": {"assay": "AUC (0 to 24 hrs) in human at 300 mg, po by LC-MS/MS analysis", "conditions": "in vivo"}, "[26]": {"system": "Plasmodium falciparum", "assay": "Antimalarial activity against Plasmodium falciparum infected in human assessed as median clearance time at 30 mg/kg, po administered daily for 3 consecutive day and measured on day 5", "type": "functional"}, "[27]": {"system": "Plasmodium berghei", "assay": "Antimalarial activity against Plasmodium berghei infected in NMRI mouse assessed as mean survival days at 30 mg/kg, po administered once and measured up to 30 days", "type": "functional"}, "[28]": {"assay": "Drug recovery in feces of po dosed human by LC-MS/MS analysis", "type": "ADME, organism-based", "conditions": "faeces, read-out: Drug recovery"}, "[29]": {"assay": "Oral bioavailability in Beagle dog at 3 mg/kg by LC-MS/MS analysis", "type": "ADME, organism-based, Canis lupus familiaris", "conditions": "in vivo"}, "[30]": {"system": "Plasmodium berghei", "assay": "Antimalarial activity against Plasmodium berghei infected in NMRI mouse assessed as reduction in parasite growth at 50 mg/kg, po administered daily for 3 consecutive days by flow cytometric analysis relative to control", "type": "functional", "set-up": "scale not given: the % may be the effect or the level left"}, "[31]": {"assay": "Half life in human", "type": "ADME"}, "[32]": {"assay": "Half life in human at 30 mg/kg, po", "conditions": "in vivo"}, "[33]": {"assay": "Cmax in Beagle dog at 3 mg/kg, po by LC-MS/MS analysis", "type": "ADME, organism-based, Canis lupus familiaris", "set-up": "dose 3 mg/kg, route oral", "conditions": "in vivo"}, "[34]": {"system": "Plasmodium berghei", "assay": "Antimalarial activity against Plasmodium berghei infected in NMRI mouse assessed as reduction in parasite growth at 10 mg/kg, po administered once and measured after 96 hrs by flow cytometric analysis relative to control", "type": "functional", "set-up": "scale not given: the % may be the effect or the level left"}, "[35]": {"assay": "Cmax in human at 150 mg, po for 3 days and measured on day 1 by LC-MS/MS analysis", "conditions": "in vivo"}, "[36]": {"assay": "Half life in human at 300 mg/kg, po by LC-MS/MS analysis", "conditions": "in vivo"}, "[37]": {"system": "Plasmodium falciparum", "assay": "Antimalarial activity against Plasmodium falciparum V1/S infected in human erythrocytes assessed as reduction in [3H]-hypoxanthine incorporation incubated for 48 hrs followed by addition of [3H]-hypoxanthine and measured after 24 hrs by liquid scintillation counting method", "type": "functional, organism-based"}, "[38]": {"assay": "Oral bioavailability in mouse at 24.6 mg/kg and measured up to 24 hrs by LC/MS analysis", "type": "ADME, organism-based", "conditions": "in vivo"}, "[39]": {"assay": "AUC (0 to 24 hrs) in human at 150 mg, po for 3 days and measured on day 3 by LC-MS/MS analysis", "conditions": "in vivo"}, "[40]": {"system": "Plasmodium berghei", "assay": "Antimalarial activity against Plasmodium berghei infected in NMRI mouse assessed as mean survival days at 10 mg/kg, po administered once and measured up to 30 days", "type": "functional"}, "[41]": {"assay": "Cmax in human at […], po and measured up to 96 to 144 hrs by LC-MS/MS analysis", "type": "ADME, organism-based", "set-up": "route oral", "conditions": "in vivo"}, "[42]": {"assay": "Volume of distribution in Wistar Hannover rat at 5 mg/kg, iv by LC-MS/MS analysis", "type": "ADME, organism-based", "conditions": "in vivo"}}, "note": "pEC50, pIC50: −log10 of the molar value.", "data": [{"smiles": "C[C@H]1Cc2c([nH]c3cc(Cl)c(F)cc23)[C@@]2(N1)C(=O)Nc1ccc(Cl)cc12", "note": "[CIPARGAMIN]", "values": [{"measurement": "pIC50", "setting": "[1]", "result": "≤ 4.52"}, {"measurement": "Activity", "setting": "[2]", "result": 100, "unit": "%"}, {"measurement": "pEC50", "setting": "[3]", "result": "8.85 to 9.30"}, {"measurement": "AUC(0-inf)", "setting": "[4]", "result": 524, "unit": "µM·h"}, {"measurement": "MIC", "setting": "[5]", "result": 0.126, "unit": "ng/mL"}, {"measurement": "pEC50", "setting": "[6]", "result": "8.85 to 9.30"}, {"measurement": "fraction unbound", "setting": "[7]", "result": "< 0.003"}, {"measurement": "pEC50", "setting": "[8]", "result": "8.85 to 9.30"}, {"measurement": "Tmax", "setting": "[9]", "result": 8, "unit": "h"}, {"measurement": "pEC50", "setting": "[10]", "result": "8.85 to 9.30"}, {"measurement": "Activity", "setting": "[11]", "result": 100, "unit": "%"}, {"measurement": "AUC(0-t) at 24 h", "setting": "[12]", "result": 15000, "unit": "ng·h/mL"}, {"measurement": "Time", "setting": "[13]", "result": 12, "unit": "h"}, {"measurement": "Tmax", "setting": "[14]", "result": 5.3, "unit": "h"}, {"measurement": "pEC50", "setting": "[15]", "result": "8.85 to 9.30"}, {"measurement": "pIC50", "setting": "[16]", "result": "≤ 4.52"}, {"measurement": "Activity", "setting": "[17]", "result": 50, "unit": "%"}, {"measurement": "half-life", "setting": "[18]", "result": 8.2, "unit": "h"}, {"measurement": "Vd", "setting": "[19]", "result": 2.17, "unit": "L/kg"}, {"measurement": "CC50 at 96 h", "setting": "[20]", "result": "> 10000", "unit": "nM"}, {"measurement": "Stability", "setting": "[21]", "result": 75, "unit": "%"}, {"measurement": "clearance", "setting": "[22]", "result": 4.2, "unit": "mL/min/kg"}, {"measurement": "pEC50", "setting": "[23]", "result": "8.85 to 9.30"}, {"measurement": "MSD", "setting": "[24]", "result": ">30", "unit": "days"}, {"measurement": "AUC(0-t) at 24 h", "setting": "[25]", "result": 36000, "unit": "ng·h/mL"}, {"measurement": "Time", "setting": "[26]", "result": 16, "unit": "h"}, {"measurement": "MSD", "setting": "[27]", "result": 24.1, "unit": "days"}, {"measurement": "dose excreted", "setting": "[28]", "result": 32, "unit": "%"}, {"measurement": "bioavailability", "setting": "[29]", "result": 68, "unit": "%"}, {"measurement": "Activity", "setting": "[30]", "result": 100, "unit": "%"}, {"measurement": "half-life", "setting": "[31]", "result": 33, "unit": "h"}, {"measurement": "half-life", "setting": "[32]", "result": 20.8, "unit": "h"}, {"measurement": "Cmax", "setting": "[33]", "result": 868, "unit": "ng/mL"}, {"measurement": "Activity", "setting": "[34]", "result": 9.96, "unit": "%"}, {"measurement": "Cmax", "setting": "[35]", "result": 1170, "unit": "ng/mL"}, {"measurement": "half-life", "setting": "[36]", "result": 24, "unit": "h"}, {"measurement": "pEC50", "setting": "[37]", "result": "8.85 to 9.30"}, {"measurement": "bioavailability", "setting": "[38]", "result": 100, "unit": "%"}, {"measurement": "AUC at 24 h", "setting": "[39]", "result": 29400, "unit": "ng·h/mL"}, {"measurement": "MSD", "setting": "[40]", "result": 13.3, "unit": "days"}, {"measurement": "Cmax", "setting": "[41]", "result": 2000, "unit": "ng/mL"}, {"measurement": "Vd", "setting": "[42]", "result": 3.18, "unit": "L/kg"}]}]}
